Reference: patent US11098055B2, “Ester ACC inhibitors and uses thereof” (Gilead Apollo, LLC, priority 2015, dated 2021)
≈ marks a conversion by molar mass, not a printed value. Each block holds one compound with its values, some of them ahead of it.

Tests used:
[1] = system: C. krusei ATCC 6258; test: Anti-Fungal (Candida) Activity Assay, broth microtiter MIC; format: cell-based, Candida krusei; settings: Pichia kudriavzevii, ATCC6258, 48 h, 3 replicates, MIC read at 48 h
In short: (§1)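 Broth microdilution per CLSI M27-A3 in RPMI 1640 + MOPS, at a final inoculum of 2.5×10^3 CFU/mL. Compound DMSO stocks were diluted in water to a 128 μg/mL working solution. MIC was read visually against the growth control at 48 h.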

[2] = molecular target: hACC2 (Homo sapiens, UniProt O00763); test: In vitro ACC2 inhibition assay (ADP-Glo), human ACC2; format: biochemical
hACC2, sequence (O00763 whole entry): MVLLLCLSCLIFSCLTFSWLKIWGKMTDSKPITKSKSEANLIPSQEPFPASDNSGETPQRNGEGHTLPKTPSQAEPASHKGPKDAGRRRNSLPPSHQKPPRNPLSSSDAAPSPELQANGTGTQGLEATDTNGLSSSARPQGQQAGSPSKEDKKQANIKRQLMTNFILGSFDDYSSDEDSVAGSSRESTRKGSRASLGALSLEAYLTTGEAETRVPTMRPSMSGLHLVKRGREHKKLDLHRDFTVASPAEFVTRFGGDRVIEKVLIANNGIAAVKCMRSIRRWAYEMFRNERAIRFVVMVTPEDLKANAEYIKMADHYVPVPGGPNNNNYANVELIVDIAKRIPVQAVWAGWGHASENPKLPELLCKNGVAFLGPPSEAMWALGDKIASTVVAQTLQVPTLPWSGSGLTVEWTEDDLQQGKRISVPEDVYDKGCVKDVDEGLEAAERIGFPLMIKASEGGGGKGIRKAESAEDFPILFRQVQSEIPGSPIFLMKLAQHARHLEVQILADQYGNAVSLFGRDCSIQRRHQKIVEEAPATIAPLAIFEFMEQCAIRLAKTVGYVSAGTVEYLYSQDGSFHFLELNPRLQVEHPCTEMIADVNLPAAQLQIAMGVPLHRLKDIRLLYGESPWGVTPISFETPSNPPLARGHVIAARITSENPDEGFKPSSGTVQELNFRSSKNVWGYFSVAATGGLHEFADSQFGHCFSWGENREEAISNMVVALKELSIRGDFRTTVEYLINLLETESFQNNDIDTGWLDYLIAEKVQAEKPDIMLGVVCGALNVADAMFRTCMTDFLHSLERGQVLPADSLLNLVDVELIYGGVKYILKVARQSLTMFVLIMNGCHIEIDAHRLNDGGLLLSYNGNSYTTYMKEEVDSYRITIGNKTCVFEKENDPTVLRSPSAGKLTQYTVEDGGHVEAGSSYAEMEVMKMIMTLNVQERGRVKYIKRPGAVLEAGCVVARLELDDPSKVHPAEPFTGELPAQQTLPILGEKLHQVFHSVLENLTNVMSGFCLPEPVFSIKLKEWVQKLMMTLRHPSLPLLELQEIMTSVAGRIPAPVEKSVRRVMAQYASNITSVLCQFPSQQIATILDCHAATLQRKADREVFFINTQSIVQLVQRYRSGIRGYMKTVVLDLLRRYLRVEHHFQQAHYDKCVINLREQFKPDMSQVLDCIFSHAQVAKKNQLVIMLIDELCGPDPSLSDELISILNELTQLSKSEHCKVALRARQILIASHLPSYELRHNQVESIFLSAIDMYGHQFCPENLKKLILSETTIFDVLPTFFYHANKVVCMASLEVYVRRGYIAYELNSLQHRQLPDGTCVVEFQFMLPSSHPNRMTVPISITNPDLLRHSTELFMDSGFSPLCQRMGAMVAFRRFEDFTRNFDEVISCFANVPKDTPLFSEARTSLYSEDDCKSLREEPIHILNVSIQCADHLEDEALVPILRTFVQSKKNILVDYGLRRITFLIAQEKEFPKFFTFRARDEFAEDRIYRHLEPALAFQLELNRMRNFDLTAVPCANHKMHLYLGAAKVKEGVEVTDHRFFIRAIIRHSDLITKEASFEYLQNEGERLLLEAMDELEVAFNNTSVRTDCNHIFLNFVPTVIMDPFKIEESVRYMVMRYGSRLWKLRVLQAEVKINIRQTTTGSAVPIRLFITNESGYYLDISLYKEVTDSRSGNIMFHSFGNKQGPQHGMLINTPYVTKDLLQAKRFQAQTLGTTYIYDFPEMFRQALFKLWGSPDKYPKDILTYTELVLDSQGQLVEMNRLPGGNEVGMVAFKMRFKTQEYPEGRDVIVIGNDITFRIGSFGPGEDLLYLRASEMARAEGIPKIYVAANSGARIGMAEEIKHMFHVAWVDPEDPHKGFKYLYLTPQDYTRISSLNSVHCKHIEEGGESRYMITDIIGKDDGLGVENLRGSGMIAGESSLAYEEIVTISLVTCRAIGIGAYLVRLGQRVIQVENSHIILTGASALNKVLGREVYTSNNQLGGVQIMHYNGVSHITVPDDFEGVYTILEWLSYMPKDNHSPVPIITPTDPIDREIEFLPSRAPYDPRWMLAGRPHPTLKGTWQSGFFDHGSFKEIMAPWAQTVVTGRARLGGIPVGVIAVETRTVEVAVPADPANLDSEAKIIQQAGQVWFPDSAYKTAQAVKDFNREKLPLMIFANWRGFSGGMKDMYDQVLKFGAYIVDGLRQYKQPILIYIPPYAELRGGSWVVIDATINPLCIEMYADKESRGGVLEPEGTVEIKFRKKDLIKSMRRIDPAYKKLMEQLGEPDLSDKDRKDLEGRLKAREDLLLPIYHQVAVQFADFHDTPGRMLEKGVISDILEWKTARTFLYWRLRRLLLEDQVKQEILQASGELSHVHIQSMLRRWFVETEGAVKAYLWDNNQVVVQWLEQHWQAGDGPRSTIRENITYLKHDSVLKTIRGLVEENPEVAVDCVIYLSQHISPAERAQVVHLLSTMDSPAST
In short: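 ADP-Glo luminescent ADP detection with 5 nM ACC2, 20 μM ATP, 20 μM acetyl-CoA, 12 mM NaHCO3, 2 mM DTT, 5% DMSO; compound (30 μM-0.00051 μM, 11 points) preincubated 15 min, reaction 60 min at room temperature. Percent inhibition against DMSO and positive controls; IC50 by four-parameter nonlinear fit.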

[3] = system: C. albicans ATCC 90028; test: Anti-Fungal (Candida) Activity Assay, broth microtiter MIC; format: cell-based; settings: ATCC90028, 48 h, 3 replicates, MIC read at 48 h
In short: as §1

[4] = system: C. parapsilosis ATCC 22019; test: as above; format: cell-based; settings: Lodderomyces parapsilosis, ATCC22019, 48 h, 3 replicates, MIC read at 48 h
In short: as §1

MIC ([1]; Table 3b (additional results)): 0.25 to 1 µg/mL (≈ 0.455 to 1.82 µM)
IC50 ([2]; Table 2b (additional results)): 0.003 to 0.01 µM
MIC ([3]; Table 3b (additional results)): 0.25 to 1 µg/mL (≈ 0.455 to 1.82 µM)
MIC ([4]; Table 3b (additional results)): 2.1 to 4 µg/mL (≈ 3.82 to 7.28 µM)
SMILES: CCOC(=O)c1sc2c(c1C)c(=O)n(C(C)(C)C(=O)NC(C)C)c(=O)n2C[C@H](O)c1cc(F)ccc1OC [Compound I-19, (R)-ethyl 1-(2-(5-fluoro-2-methoxyphenyl)-2-hydroxyethyl)-3-(1-(isopropylamino)-2-methyl-1-oxopropan-2-yl)-5-methyl-2,4-dioxo-1,2,3,4-tetrahydrothieno[2,3-d]pyrimidine-6-carboxylate]

SMILES: CCOC(=O)c1sc2c(c1C)c(=O)n(C(C)(C)C(=O)NC(C)C)c(=O)n2C[C@H](OC[C@H](C)C#N)c1cc(F)ccc1OC [Compound I-34, ethyl 1-((R)-2-((R)-2-cyanopropoxy)-2-(5-fluoro-2-methoxyphenyl)ethyl)-3-(1-(isopropylamino)-2-methyl-1-oxopropan-2-yl)-5-methyl-2,4-dioxo-1,2,3,4-tetrahydrothieno[2,3-d]pyrimidine-6-carboxylate]
MIC ([1]; Table 3b (additional results)): 2.1 to 4 µg/mL (≈ 3.41 to 6.49 µM)
IC50 ([2]; Table 2b (additional results)): 0.01 to 0.04 µM
MIC ([3]; Table 3b (additional results)): 0.25 to 1 µg/mL (≈ 0.405 to 1.62 µM)
MIC ([4]; Table 3b (additional results)): 2.1 to 4 µg/mL (≈ 3.41 to 6.49 µM)

SMILES: CCOC(=O)c1sc2c(c1C)c(=O)n([C@H](C)C(=O)N(C)C(C)C)c(=O)n2C[C@H](OCCC#N)c1cc(F)ccc1OC [Compound I-27, ethyl 1-((R)-2-(2-cyanoethoxy)-2-(5-fluoro-2-methoxy-phenyl)ethyl)-3-((R)-1-(isopropyl(methyl)amino)-1-oxopropan-2-yl)-5-methyl-2,4-dioxo-1,2,3,4-tetrahydrothieno[2,3-d]pyrimidine-6-carboxylate]
MIC ([1]; Table 3b (additional results)): 0.25 to 1 µg/mL (≈ 0.415 to 1.66 µM)
IC50 ([2]; Table 2b (additional results)): 0.0003 to 0.003 µM
MIC ([3]; Table 3b (additional results)): 2.1 to 4 µg/mL (≈ 3.48 to 6.64 µM)
MIC ([4]; Table 3b (additional results)): 2.1 to 4 µg/mL (≈ 3.48 to 6.64 µM)

SMILES: CCOC(=O)c1sc2c(c1C)c(=O)n(C(C)(C)C(=O)NC(C)C)c(=O)n2C[C@H](OCCC#N)c1ccccc1OC [Compound I-31, ethyl (R)-1-(2-(2-cyanoethoxy)-2-(2-methoxyphenyl)ethyl)-3-(1-(isopropylamino)-2-methyl-1-oxopropan-2-yl)-5-methyl-2,4-dioxo-1,2,3,4-tetrahydrothieno[2,3-d]pyrimidine-6-carboxylate]
MIC ([1]; Table 3b (additional results)): 0.25 to 1 µg/mL (≈ 0.428 to 1.71 µM)
IC50 ([2]; Table 2b (additional results)): 0.003 to 0.01 µM
MIC ([3]; Table 3b (additional results)): 0.25 to 1 µg/mL (≈ 0.428 to 1.71 µM)
MIC ([4]; Table 3b (additional results)): 1.1 to 2 µg/mL (≈ 1.88 to 3.42 µM)

SMILES: CCOC(=O)c1sc2c(c1C)c(=O)n(C(C)(C)C(=O)N1CCCC1)c(=O)n2C[C@H](OC1CCOCC1)c1ccccc1OC [Compound I-3, ethyl (R)-1-(2-(2-methoxyphenyl)-2-((tetrahydro-2H-pyran-4-yl)oxy)ethyl)-5-methyl-3-(2-methyl-1-oxo-1-(pyrrolidin-1-yl)propan-2-yl)-2,4-dioxo-1,2,3,4-tetrahydrothieno[2,3-d]pyrimidine-6-carboxylate]
MIC ([1]; Table 3a): 0.25 to 1 µg/mL (≈ 0.398 to 1.59 µM)
MIC ([1]; Table 3b (additional results)): 2.1 to 4 µg/mL (≈ 3.35 to 6.37 µM)
IC50 ([2]; Table 2a): 0.01 to 0.04 µM
IC50 ([2]; Table 2b (additional results)): 0.01 to 0.04 µM
MIC ([3]; Table 3a): 0.25 to 1 µg/mL (≈ 0.398 to 1.59 µM)
MIC ([3]; Table 3b (additional results)): 0.25 to 1 µg/mL (≈ 0.398 to 1.59 µM)
MIC ([4]; Table 3a): 0.25 to 1 µg/mL (≈ 0.398 to 1.59 µM)
MIC ([4]; Table 3b (additional results)): 0.25 to 1 µg/mL (≈ 0.398 to 1.59 µM)

SMILES: CCOC(=O)c1sc2c(c1C)c(=O)n(C(C)(C)C(=O)NC(C)C)c(=O)n2C[C@H](OC[C@@H](C)C#N)c1cc(F)ccc1OC [Compound I-35, ethyl 1-((R)-2-((S)-2-cyanopropoxy)-2-(5-fluoro-2-methoxyphenyl)ethyl)-3-(1-(isopropylamino)-2-methyl-1-oxopropan-2-yl)-5-methyl-2,4-dioxo-1,2,3,4-tetrahydrothieno[2,3-d]pyrimidine-6-carboxylate]
MIC ([1]; Table 3b (additional results)): 2.1 to 4 µg/mL (≈ 3.41 to 6.49 µM)
IC50 ([2]; Table 2b (additional results)): 0.003 to 0.01 µM
MIC ([3]; Table 3b (additional results)): 0.25 to 1 µg/mL (≈ 0.405 to 1.62 µM)
MIC ([4]; Table 3b (additional results)): 0.25 to 1 µg/mL (≈ 0.405 to 1.62 µM)

SMILES: CCOC(=O)c1sc2c(c1C)c(=O)n(C(C)(C)C(=O)N1CCCC1)c(=O)n2C[C@H](OCCC#N)c1cc(F)ccc1OC [Compound I-16, (R)-ethyl 1-(2-(2-cyanoethoxy)-2-(5-fluoro-2-methoxy-phenyl)ethyl)-5-methyl-3-(2-methyl-1-oxo-1-(pyrrolidin-1-yl)propan-2-yl)-2,4-dioxo-1,2,3,4-tetrahydrothieno[2,3-d]pyrimidine-6-carboxylate]
MIC ([1]; Table 3a): > 4.1 µg/mL
MIC ([1]; Table 3b (additional results)): 2.1 to 4 µg/mL (≈ 3.42 to 6.51 µM)
IC50 ([2]; Table 2a): 0.003 to 0.01 µM
MIC ([3]; Table 3a): > 4.1 µg/mL
MIC ([3]; Table 3b (additional results)): 2.1 to 4 µg/mL (≈ 3.42 to 6.51 µM)
MIC ([4]; Table 3a): > 4.1 µg/mL
MIC ([4]; Table 3b (additional results)): 0.25 to 1 µg/mL (≈ 0.407 to 1.63 µM)
